Results: US20140039044A1, “Hydroxylated Polymethoxyflavone Compositions” (WLLGEN, INC., priority 2006, published 2014)
Like-named read-outs stand apart in the source and are kept apart here.

Legend:
HT-29 cells [1] = assay: Apoptotic ratio by propidium iodide flow cytometry (AC50); format: cell-based, human; conditions: read-out: Apoptosis-inducing AC50
Method: (§1) The human cancer cells (2×10^5) were cultured in 60-mm Petri dishes and incubated for 24 h. After treated with test compounds for 24 h, the cells were then harvested, washed with PBS resuspended in 200 μL of PBS, and fixed in 800 μL of iced 100% ethanol at −20° C. After being left to stand overnight, the cell pellets were collected by centrifugation, resuspended in 1 mL of hypotonic buffer (0.5% Triton X-100 in PBS and 0.5 μg/mL RNase) and incubated at 37° C. for 30 min. Next, 1 mL of propidium iodide solution (50 μg/mL) was added, and the mixture was allowed to stand on ice for 30 min. Fluorescence emitted from the propidium iodide-DNA complex was quantitated after excitation of the fluorescent dye by FACScan cytometry (Becton Dickinson, San Jose, Calif.).
(§2) The PMF compounds were assayed in vitro for cell growth inhibition and for their ability to induce apoptosis in various human cancer cells, including HL-60, AGS, COLO 205, and HT-29 cells, using methods described in Section 8.4 above. Antiproliferative (IC50) and apoptosis-inducing activity (AC50) of PMFs in the HL-60, AGS, COLO 205, and HT-29 cells are reported in Table 9, where *P<0.05, **P<0.01 and ***P<0.001 indicate statistically significant differences from the control group.

HT-29 cells [2] = assay: Cell cycle distribution by flow cytometry; format: cell-based, human; conditions: for Cell Cycle Distribution G0/G1 / Cell Cycle Distribution G2/M / Cell Cycle Distribution S: 24 h
Method: as §1
(§3) Compounds A-K were evaluated in terms of their effects in arresting cell cycle progression by observing cell cycle phase distribution in cells treated with the compounds. Cells were treated with 5, 10, 25, 50, and 100 μM of one of compound A-K or DMSO (control) for 24 h and subjected to flow cytometric analysis after staining their DNA, as described above.
Similar cell cycle phase distribution studies were performed in AGS, COLO205, and HT-29 cells in response to individual PMFs, with results reported in Tables 11, 12 and 13, respectively.

[3] = test system: LPS-induced nitrite production in RAW 264.7 macrophages; assay: Nitrite assay (Griess reaction); format: cell-based, mouse; conditions: 100 ng/ml LPS, PMF 30 μM, 24 h, FIG. 3
Method: Compounds or compositions were tested for anti-inflammatory effects by monitoring nitrite production in LPS-activated RAW264.7 cells. After treating the cells with LPS or LPS and test substance, supernatants were harvested and the amount of nitrite, an indicator of NO synthesis, was measured by use of the Griess reaction. Briefly, supernatants (100 μl) were mixed with the same volume of Griess reagent (1% sulphanilamide in 5% phosphoric acid and 0.1% naphthylethylenediamine dihydrochloride in water) in duplicate on 96-well plates. After incubation at room temperature for 10 min, absorbance at 570 nm was measured with a ELISA reader (Thermo Labsystems Multiskan Ascent, Finland).
The anti-inflammatory effects of compounds A-K were tested by measuring nitrite production in LPS-activated RAW 264.7 macrophages, as described in Section 8.4 above. Macrophages were treated with 100 ng/ml LPS alone or LPS and PMF (10 or 30 μM) for 24 h. At the end of incubation time, 100 μl of the culture medium was collected for the nitrite assay.

HL-60 cells [4] = assay: Cell cycle distribution by flow cytometry; format: cell-based, human; conditions: 24 h; for Cell Cycle Distribution G0/G1 / Cell Cycle Distribution G2/M / Cell Cycle Distribution S: Table 10; for Cell cycle arrest, in words: 25-100 μM
Method: as §1
The effects of the hydrolyzed PMF-enriched compositions, nobiletin and 70% PMF OPE on cell cycle distribution were studied, following the procedures described in Section 8.4. Results for cell cycle distribution in HL-60 cells, COLO205 cells and AGS cells are provided in Table 5, Table 6 and Table 7, respectively. […] In HL-60 cells, G2/M arrest predominated in cells treated with 6N PMF concentrations ≧5 μM and with 1N PMF concentrations ≧25 μM.
as §3

HL-60 cells [5] = assay: Apoptotic ratio by propidium iodide flow cytometry (AC50); format: cell-based, human
Method: as §1
(§4) 1 N PMF and 6 N PMF compositions containing hydroxylated PMFs, prepared as described in Section 8.3 above, 70% PMF OPE and 5,6,7,8,3′,4′-hexamethoxyflavone (nobiletin) were tested for antiproliferative activity and apoptosis-inducing activity in HL-60, AGS and COLO205 cells as described in Section 8.4 above. Antiproliferative and apoptosis-inducing activities were derived as IC50 values and AC50, values, respectively, where AC50 is the concentration required for 50% apoptosis.
as §2

COLO205 cells = assay: as above; format: cell-based, human
Method: as §1, §4, §2

AGS cells = assay: as above; format: cell-based, human; conditions: read-out: Apoptosis-inducing AC50
Method: as §1, §4, §2

SMILES	Cell Cycle Distribution G0/G1 (HT-29 cells [2]; 5 μM)	Cell Cycle Distribution G2/M (HT-29 cells [2]; 5 μM)	Cell Cycle Distribution S (HT-29 cells [2]; 5 μM)	Cell Cycle Distribution G0/G1 (HT-29 cells [2]; 10 μM)	Cell Cycle Distribution G2/M (HT-29 cells [2]; 10 μM)	Cell Cycle Distribution S (HT-29 cells [2]; 10 μM)	Cell Cycle Distribution G0/G1 (HT-29 cells [2]; 25 μM)	Cell Cycle Distribution G2/M (HT-29 cells [2]; 25 μM)	Cell Cycle Distribution S (HT-29 cells [2]; 25 μM)	Cell Cycle Distribution G0/G1 (HT-29 cells [2]; 50 μM)	Cell Cycle Distribution G2/M (HT-29 cells [2]; 50 μM)	Cell Cycle Distribution S (HT-29 cells [2]; 50 μM)	Cell Cycle Distribution G0/G1 (HT-29 cells [2]; 100 μM)	Cell Cycle Distribution G2/M (HT-29 cells [2]; 100 μM)	Cell Cycle Distribution S (HT-29 cells [2]; 100 μM)	Cell Cycle Distribution G0/G1 (HL-60 cells [4]; 5 μM)	Cell Cycle Distribution G2/M (HL-60 cells [4]; 5 μM)	Cell Cycle Distribution S (HL-60 cells [4]; 5 μM)	Cell Cycle Distribution G0/G1 (HL-60 cells [4]; 10 μM)	Cell Cycle Distribution G2/M (HL-60 cells [4]; 10 μM)	also measured
COc1c(OC)c(OC)c2c(=O)cc(-c3ccc(O)c(O)c3)oc2c1OC [H, 3′,4′-dihydroxy-5,6,7,8-tetramethoxyflavone]	63.21 ± 1.82	7.53 ± 0.81	29.26 ± 2.63	64.87 ± 0.74	8.19 ± 0.09	26.95 ± 0.64	63.87 ± 0.92	8.45 ± 0.46	27.68 ± 1.37	63.10 ± 0.16	7.94 ± 0.84	28.98 ± 0.69	61.66 ± 1.44	4.98 ± 1.55	33.37 ± 0.11	49.78 ± 1.80	4.37 ± 5.00	45.85 ± 6.80	49.29 ± 1.53	2.76 ± 3.90	AC50 (HT-29 cells [1]; Homo sapiens): > 100 µM; Rank of inhibitory potency on LPS-induced nitrite production [3]: H>G>K>C>I>B; Cell Cycle Distribution S (HL-60 cells [4]; 10 μM): 47.95 ± 5.43; Cell Cycle Distribution G0/G1 (HL-60 cells [4]; 25 μM): 52.82 ± 0.15; Cell Cycle Distribution G2/M (HL-60 cells [4]; 25 μM): 5.49 ± 1.11; Cell Cycle Distribution S (HL-60 cells [4]; 25 μM): 41.68 ± 0.93; Cell Cycle Distribution G0/G1 (HL-60 cells [4]; 50 μM): 62.04 ± 1.19; Cell Cycle Distribution G2/M (HL-60 cells [4]; 50 μM): 10.70 ± 0.89; Cell Cycle Distribution S (HL-60 cells [4]; 50 μM): 27.27 ± 0.31; Cell Cycle Distribution G0/G1 (HL-60 cells [4]; 100 μM): 61.15 ± 7.03; Cell Cycle Distribution G2/M (HL-60 cells [4]; 100 μM): 25.94 ± 8.32; Cell Cycle Distribution S (HL-60 cells [4]; 100 μM): 12.91 ± 15.34; Cell cycle arrest, in words (HL-60 cells [4]): significant G1 arrest; AC50 (HL-60 cells [5]; Homo sapiens, HL-60, read-out: Apoptosis-inducing AC50): > 100 µM; AC50 (COLO205 cells; Homo sapiens, COLO 205, read-out: Apoptosis-inducing AC50): > 100 µM; AC50 (AGS cells; Homo sapiens, AGS): > 100 µM
COc1ccc(-c2oc3c(OC)c(OC)c(OC)c(OC)c3c(=O)c2OC)cc1OC [D, 3,5,6,7,8,3,4-heptamethoxyflavone, reference compound]	67.79 ± 0.17	7.56 ± 0.23	24.66 ± 0.06	57.61 ± 0.69	10.41 ± 0.45	30.98 ± 1.18	76.11 ± 1.56	9.04 ± 2.77	14.89 ± 1.21	77.31 ± 2.82	12.21 ± 0.74	20.49 ± 2.09	80.66 ± 0.01	3.79 ± 0.43	15.57 ± 0.43	50.66 ± 1.20	4.88 ± 0.49	44.46 ± 0.49	52.79 ± 0.99	5.09 ± 0.35	AC50 (HT-29 cells [1]): > 100 µM; Cell cycle arrest, in words (HT-29 cells [2]; 5-100 μM, 24 h exposure): significant accumulation of cells in G1 phase; Cell Cycle Distribution S (HL-60 cells [4]; 10 μM): 42.12 ± 0.49; Cell Cycle Distribution G0/G1 (HL-60 cells [4]; 25 μM): 57.63 ± 0.14; Cell Cycle Distribution G2/M (HL-60 cells [4]; 25 μM): 0.09 ± 0.71; Cell Cycle Distribution S (HL-60 cells [4]; 25 μM): 42.28 ± 0.57; Cell Cycle Distribution G0/G1 (HL-60 cells [4]; 50 μM): 80.79 ± 0.71; Cell Cycle Distribution G2/M (HL-60 cells [4]; 50 μM): 0.21 ± 0.42; Cell Cycle Distribution S (HL-60 cells [4]; 50 μM): 19.00 ± 0.78; Cell Cycle Distribution G0/G1 (HL-60 cells [4]; 100 μM): 84.06 ± 0.57; Cell Cycle Distribution G2/M (HL-60 cells [4]; 100 μM): 0.47 ± 0.21; Cell Cycle Distribution S (HL-60 cells [4]; 100 μM): 15.47 ± 1.06; Cell cycle arrest, in words (HL-60 cells [4]): significant G1 arrest; AC50 (HL-60 cells [5]; HL-60 cells, read-out: Apoptosis-inducing AC50): > 100 µM; AC50 (COLO205 cells; COLO205 cells, read-out: Apoptosis-inducing AC50): > 100 µM; AC50 (AGS cells; AGS cells): > 100 µM
COc1ccc(-c2cc(=O)c3c(O)c(OC)c(OC)c(OC)c3o2)cc1OC [J, 5-hydroxy-6,7,8,3′,4′-pentamethoxyflavone]	64.81 ± 0.41	9.52 ± 0.05	25.68 ± 0.46	62.87 ± 0.40	9.02 ± 0.16	28.11 ± 0.57	62.04 ± 1.24	8.46 ± 0.09	29.51 ± 1.15	60.39 ± 0.28	9.93 ± 0.06	29.55 ± 0.52	62.44 ± 1.00	7.89 ± 0.69	29.67 ± 1.68	53.10 ± 0.46	7.94 ± 0.06	38.96 ± 0.51	51.74 ± 1.57	9.06 ± 0.54	AC50 (HT-29 cells [1]; Homo sapiens): > 100 µM; Cell Cycle Distribution S (HL-60 cells [4]; 10 μM): 39.20 ± 2.10; Cell Cycle Distribution G0/G1 (HL-60 cells [4]; 25 μM): 51.30 ± 1.68; Cell Cycle Distribution G2/M (HL-60 cells [4]; 25 μM): 8.20 ± 1.19; Cell Cycle Distribution S (HL-60 cells [4]; 25 μM): 40.50 ± 2.87; Cell Cycle Distribution G0/G1 (HL-60 cells [4]; 50 μM): 49.22 ± 0.13; Cell Cycle Distribution G2/M (HL-60 cells [4]; 50 μM): 7.93 ± 0.36; Cell Cycle Distribution S (HL-60 cells [4]; 50 μM): 42.86 ± 0.48; Cell Cycle Distribution G0/G1 (HL-60 cells [4]; 100 μM): 51.29 ± 0.74; Cell Cycle Distribution G2/M (HL-60 cells [4]; 100 μM): 7.45 ± 0.83; Cell Cycle Distribution S (HL-60 cells [4]; 100 μM): 41.27 ± 0.09; AC50 (HL-60 cells [5]; Homo sapiens, HL-60 cells, read-out: Apoptosis-inducing AC50): > 100 µM; AC50 (COLO205 cells; Homo sapiens, COLO 205, COLO205 cells, read-out: Apoptosis-inducing AC50): > 100 µM; AC50 (AGS cells; Homo sapiens, AGS cells): > 100 µM
